This is an account of results in patent US8822754B2, “Ecdysone receptor-based inducible gene expression system” (Intrexon Corporation, priority 2000, dated 2014).

One test relates to GAL4RXR + VP16CfEcR. Description: Transactivation of reporter genes through switch 1.3 in CHO cells. It is filed as cell-based, Choristoneura fumiferana. To be noted: switch 1.3 GAL4RXR + VP16CfEcR, pGAL4RELuc. The procedure:
(§1) The cells were harvested and reporter activity was assayed.
(§2) Cells were harvested 24-48 hr after adding ligands. […] Twenty μl of lysate was assayed.
(A reporter such as luciferase makes a cellular process visible.)

For test [1], the system named is GAL4USP + VP16CfEcR. Description: Transactivation of reporter genes through switch 1.5 in CHO cells. Format: cell-based, Choristoneura fumiferana. Conditions: switch 1.5 GAL4USP + VP16CfEcR, pGAL4RELuc. How it is done:
(§3) This construct was prepared in the same way as switch 1.3 except MmRXRDEF was replaced with CfUSPDEF (SEQ ID NO: 58).
as §1, §2

The target of another test is T1, DmVgRXR + MmRXR (Drosophila melanogaster, UniProt P34021, E282G/G283S/G286V).
T1 construct: host or cells: CHO, NIH3T3, 293 or CV1 cells (one cell line per assay)
T1 sequence (P34021 whole entry E282G/G283S/G286V): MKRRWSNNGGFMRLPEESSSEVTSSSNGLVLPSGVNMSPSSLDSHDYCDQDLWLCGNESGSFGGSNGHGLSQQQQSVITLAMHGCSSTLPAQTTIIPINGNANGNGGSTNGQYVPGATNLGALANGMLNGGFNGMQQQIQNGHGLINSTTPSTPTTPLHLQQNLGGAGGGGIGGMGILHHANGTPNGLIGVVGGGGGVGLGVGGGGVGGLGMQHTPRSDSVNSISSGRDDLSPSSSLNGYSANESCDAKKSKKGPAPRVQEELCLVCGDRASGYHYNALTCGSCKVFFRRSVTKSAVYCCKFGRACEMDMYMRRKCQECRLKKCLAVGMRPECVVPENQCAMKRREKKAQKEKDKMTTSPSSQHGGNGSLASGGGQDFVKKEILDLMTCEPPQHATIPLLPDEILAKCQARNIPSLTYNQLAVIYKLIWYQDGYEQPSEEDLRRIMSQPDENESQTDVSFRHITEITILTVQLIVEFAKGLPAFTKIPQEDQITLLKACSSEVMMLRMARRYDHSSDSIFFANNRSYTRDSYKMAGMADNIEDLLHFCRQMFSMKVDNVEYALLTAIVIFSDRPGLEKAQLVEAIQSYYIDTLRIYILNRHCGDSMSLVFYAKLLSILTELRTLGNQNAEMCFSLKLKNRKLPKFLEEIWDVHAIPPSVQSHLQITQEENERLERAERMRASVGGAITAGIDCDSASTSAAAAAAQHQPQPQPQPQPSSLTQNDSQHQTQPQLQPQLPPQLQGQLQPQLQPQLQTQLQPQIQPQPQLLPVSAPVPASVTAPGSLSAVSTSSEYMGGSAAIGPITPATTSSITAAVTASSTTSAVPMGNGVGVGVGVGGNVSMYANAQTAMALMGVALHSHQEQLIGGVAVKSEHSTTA
T1 sequence (P28700 whole entry, further chain): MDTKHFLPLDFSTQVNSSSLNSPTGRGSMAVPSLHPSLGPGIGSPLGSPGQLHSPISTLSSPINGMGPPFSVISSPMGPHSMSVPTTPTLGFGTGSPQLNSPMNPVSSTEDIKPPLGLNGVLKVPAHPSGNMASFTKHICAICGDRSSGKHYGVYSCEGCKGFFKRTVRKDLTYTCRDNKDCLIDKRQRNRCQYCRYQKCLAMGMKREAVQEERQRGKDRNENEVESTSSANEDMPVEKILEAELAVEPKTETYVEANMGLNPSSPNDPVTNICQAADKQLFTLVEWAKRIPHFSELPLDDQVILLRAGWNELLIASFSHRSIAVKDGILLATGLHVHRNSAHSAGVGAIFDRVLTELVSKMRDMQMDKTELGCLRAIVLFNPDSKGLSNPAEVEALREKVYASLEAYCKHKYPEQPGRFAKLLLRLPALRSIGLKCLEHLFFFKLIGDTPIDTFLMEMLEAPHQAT
Kind of test: Transactivation of reporter genes through switch 1.8 in CHO cells. Conditions: switch 1.8 DmVgRXR + MmRXR, pIND(SP1)LacZ. It is filed as cell-based.
Excerpt: This system was purchased from Invitrogen Corp., Carlsbad, Calif. It comprises a Drosophila melanogaster EcR (“DmEcR”) with a modified DNABD fused to VP16AD and placed under the control of a CMV promoter (SEQ ID NO: 60). Full length MmRXR (SEQ ID NO: 53) was placed under the control of the RSV promoter (SEQ ID NO: 61). The reporter, pIND(SP1)LacZ, contains five copies of a modified ecdysone response element (“EcRE”, E/GRE), three copies of an SP1 enhancer, and a minimal heat shock promoter, all of which were placed upstream to the LacZ reporter gene.
as §1, §2

The subject of another test is GAL4CfEcRVP16. Description: Transactivation of reporter genes through switch 1.6 in 3T3 cells. Format: cell-based, Choristoneura fumiferana. Conditions: switch 1.6 GAL4CfEcRVP16, pGAL4RELuc. How it is done: This construct was prepared so that both the GAL4 DNABD and the VP16AD were placed on the same molecule. GAL4DNABD (SEQ ID NO: 41) and VP16AD (SEQ ID NO: 45) were fused to CfEcRDEF (SEQ ID NO: 3) at N- and C-termini respectively.
(§4) The cells were plated when they reached 50% confluency.
as §2

The subject of a further test is VP16CfEcR. Kind of test: Transactivation of reporter genes through switch 1.7 in 3T3 cells. It is filed as cell-based, Choristoneura fumiferana. To be noted: switch 1.7 VP16CfEcR, pEcRELuc. The procedure: Six ecdysone response elements (“EcRE”; SEQ ID NO: 59) from the hsp27 gene were placed upstream of the promoter and a luciferase gene (SEQ ID NO: 57). This switch most probably uses endogenous RXR.
as §4, §2

A further test deals with CfVgRXR + MmRXR. Description: Transactivation of reporter genes through switch 1.9 in 3T3 cells. It is filed as cell-based, Choristoneura fumiferana. Conditions: switch 1.9 CfVgRXR + MmRXR, pIND(SP1)LacZ. How it is done:
This example was prepared in the same way as switch 1.8 except DinEcR was replaced with a truncated CfEcR comprising a partial A/B domain and the complete CDEF domains [SEQ ID NO: 62 (polynucleotide) and SEQ ID NO: 63 (polypeptide)].
as §4, §2

The test system of test [2] is GAL4USP + VP16CfEcR. Kind of test: Transactivation of reporter genes through switch 1.5 in 293 cells. It is filed as cell-based, Choristoneura fumiferana. Conditions: switch 1.5 GAL4USP + VP16CfEcR, pGAL4RELuc. How it is done:
as §3
(§5) The same procedures described for CHO were followed for 293 cells except that the cells were plated in biocoated plates to avoid clumping.
as §2

The subject of another test is CfVgRXR. Kind of test: Transactivation of reporter genes through switch 1.10 in 293 cells. Conditions: switch 1.10 CfVgRXR, pIND(SP1)LacZ. Format: cell-based, Choristoneura fumiferana. The procedure: This example was prepared in the same way as switch 1.9 except MmRXR (SEQ ID NO: 53) was deleted.
as §5, §2

The subject of a further test is GAL4EcR + VP16USP. Kind of test: Transactivation of reporter genes through switch 1.2 in CV1 cells. It is filed as cell-based, Choristoneura fumiferana. To be noted: switch 1.2 GAL4EcR + VP16USP, pGAL4RELuc. How it is done: This construct was prepared in the same way as in switch 1.1 above except MmRXRDEF was replaced with the D, E and F domains from spruce budworm USP (“CfUSPDEF”; SEQ ID NO: 58). The constructs used in this example are similar to those disclosed in U.S. Pat. No. 5,880,333 except that Choristoneura fumiferana USP rather than Drosophila melanogaster USP was utilized.
The same procedures described for NIH3T3 cells were followed for CV1 cells
as §2

Test [3] addresses T2, GAL4RXR + VP16DmEcR (Drosophila melanogaster, UniProt P34021).
T2 sequence (P34021 254-878): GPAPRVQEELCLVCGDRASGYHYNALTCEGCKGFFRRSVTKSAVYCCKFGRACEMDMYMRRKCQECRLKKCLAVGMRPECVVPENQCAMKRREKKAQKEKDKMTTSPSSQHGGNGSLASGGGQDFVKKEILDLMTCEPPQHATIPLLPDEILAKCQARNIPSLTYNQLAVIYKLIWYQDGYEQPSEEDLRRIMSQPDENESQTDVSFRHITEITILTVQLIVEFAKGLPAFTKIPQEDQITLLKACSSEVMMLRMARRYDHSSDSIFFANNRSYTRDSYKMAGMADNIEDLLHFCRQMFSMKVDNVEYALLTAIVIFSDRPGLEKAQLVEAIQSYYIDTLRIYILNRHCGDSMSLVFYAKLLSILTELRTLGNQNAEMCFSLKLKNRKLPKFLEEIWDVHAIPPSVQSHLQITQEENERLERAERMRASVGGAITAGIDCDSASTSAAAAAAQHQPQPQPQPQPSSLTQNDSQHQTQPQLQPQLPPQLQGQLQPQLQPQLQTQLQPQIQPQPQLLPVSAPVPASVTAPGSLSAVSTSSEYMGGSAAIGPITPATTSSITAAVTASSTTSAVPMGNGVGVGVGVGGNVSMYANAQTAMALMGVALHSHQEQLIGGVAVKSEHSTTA
T2 sequence (P28700 206-467 partner limits assumed): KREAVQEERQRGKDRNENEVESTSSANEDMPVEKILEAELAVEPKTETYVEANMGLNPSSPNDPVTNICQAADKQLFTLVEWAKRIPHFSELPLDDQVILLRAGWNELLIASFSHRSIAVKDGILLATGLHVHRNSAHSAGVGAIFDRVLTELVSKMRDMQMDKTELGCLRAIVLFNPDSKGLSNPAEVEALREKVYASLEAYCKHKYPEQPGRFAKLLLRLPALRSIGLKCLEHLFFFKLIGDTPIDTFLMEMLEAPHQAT
Kind of test: Transactivation of reporter genes through switch 1.4 in CHO cells. It is filed as cell-based. Details: expressed in transfected cells; host or cells: CHO cells (transient co-transfection). Conditions: switch 1.4 GAL4RXR + VP16DmEcR, pGAL4RELuc. How it is done: (§6) This construct was prepared in the same way as switch 1.3 except CfEcRCDEF was replaced with DmEcRCDEF (SEQ ID NO: 6).
as §1, §2

The target of test [4] is T2, GAL4RXR + VP16DmEcR. Kind of test: Transactivation of reporter genes through switch 1.4 in 293 cells. It is filed as cell-based. Details: expressed in transfected cells; host or cells: 293 cells (transient co-transfection). Conditions: switch 1.4 GAL4RXR + VP16DmEcR, pGAL4RELuc. How it is done: as §6, §5, §2

Regarding `CCc1c(OC)cccc1C(=O)NN(C(=O)c1cc(C)cc(C)c1)C(C)(C)C` [N-(2-ethyl-3-methoxybenzoyl)-N′-(3,5-dimethylbenzoyl)-N′-tert-butylhydrazine], the “Mean Fold Activation with 50 μM N-(2-ethyl-3-methoxybenzoyl)-N′-(3,5-dimethylbenzoyl)-N′-t-butylhydrazine” value with GAL4RXR + VP16CfEcR was found to be 85 fold; with GAL4USP + VP16CfEcR [1], 2 fold; at DmVgRXR + MmRXR, 14 fold; on GAL4RXR + VP16DmEcR [3] it was 312 fold. The “Mean Fold Activation Through N-(2-ethyl-3-methoxybenzoyl)-N′-(3,5-dimethylbenzoyl)-N′-t-butylhydrazine” value in the test with GAL4CfEcRVP16 stood at 7 fold; with VP16CfEcR, 1 fold; in the test on CfVgRXR + MmRXR, 19 fold; in the test with GAL4USP + VP16CfEcR [2], 2 fold; with CfVgRXR, 3 fold; in the test on GAL4EcR + VP16USP it was 2 fold. Also, the “Mean Fold Activation Through N-(2-ethyl-3-methoxybenzoyl)-N′-(3,5-dimethylbenzoyl)-N′-t-butylhydrazine” value on GAL4RXR + VP16DmEcR [4] was 3 fold.
